{"source": "patent US8252835B2", "about": "“Compounds and methods for treating estrogen receptor-related diseases” (Shenogen Pharma Group Ltd., priority 2006, dated 2012)", "key": {"[1]": {"system": "Tamoxifen resistant MCF7 cells (MCF7/TAM)", "assay": "Surviving cell count, Tamoxifen resistant MCF7 cells", "settings": "10 μM, FIG. 16"}, "[2]": {"system": "PC3 cells", "assay": "PC3 prostate cancer surviving cell count", "format": "cell-based", "settings": "10 μM, FIG. 16"}, "[3]": {"assay": "Asthma attack induced by ovalbumin in guinea pigs", "format": "in vivo", "settings": "for blood concentration of histamine / concentration of IgE in the blood: ELISA; for blood concentration of histamine: FIG. 19; for concentration of IgE in the blood: FIG. 20; for percentage of oxyphil cells in the blood: control about 9.9%, normal about 5.3%", "method": "Guinea pigs of 250-300 g were provided by Beijing Haidian Xingwang Animal Farm. The guinea pigs were injected with 1 ml 10% ovalbumin (Sigma Cat. No. A5253) into abdomen once. On the 15th-17th day after the injection, the guinea pigs were given 1% aerosolized ovalbumin for about 20 seconds through nasal spray to induce asthma attack. The latent period before asthma attack calculated from after ovalbumin administration to the time when the guinea pigs collapsed with convulsion was measured.\nOn the 17th day after injection, the qualified guinea pigs were divided into 3 groups, the high dosage IC-163 group (4 mg/kg/day), the low dosage IC-163 group (1 mg/kg/day) and the control group. Each group consisted of 10 guinea pigs. A normal group consisting of 8 normal guinea pigs which had not been injected with any 10% ovalbumin was also tested. IC-163 was administered to the guinea pigs at 4 mg per kilogram of body weight per day (the high dosage group) or 1 mg per kilogram of body weight per day (the low dosage group) through muscle injection once a day for 6 days while the guinea pigs of the normal group and the control group were injected with saline water. On the 4th and 6th day of administering the drug, the guinea pigs were induced for asthma attack in the same way as above. The latent period before asthma attack was measured. If the latent period lasted longer than 5 minutes, the latent period was recorded as 5 minutes. On the 6th day, blood was drawn from the guinea pigs of the four groups to examine the percentage of oxyphil cells, the concentrations of histamine and IgE in the blood. The percentage of oxyphil cells was measured by counting the number of oxyphil cells in every 200 leukocytes under microscope. The concentrations of histamine and IgE were measured by double-antibody sandwich ELISA (Enzyme Linked Immunosorbent Assay)."}, "[4]": {"biological_target": "T1, ER-α36 (Homo sapiens, UniProt P03372)", "T1 sequence (P03372 1-310 isoform P03372-4)": "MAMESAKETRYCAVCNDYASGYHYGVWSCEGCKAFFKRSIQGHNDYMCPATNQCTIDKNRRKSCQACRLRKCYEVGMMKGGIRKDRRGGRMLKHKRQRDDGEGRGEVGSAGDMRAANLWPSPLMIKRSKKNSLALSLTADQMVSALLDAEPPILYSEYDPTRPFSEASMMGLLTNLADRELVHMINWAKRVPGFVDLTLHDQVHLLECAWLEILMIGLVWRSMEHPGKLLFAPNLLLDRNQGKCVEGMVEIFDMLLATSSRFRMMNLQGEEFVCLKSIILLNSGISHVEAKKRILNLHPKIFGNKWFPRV", "assay": "Western blot of ER-α36 expression in MCF7 cells", "settings": "zero to 25 μM, 12 hours, FIG. 9"}, "[5]": {"system": "H226 Lung Cancer Cells", "assay": "H226 lung cancer surviving cell count", "format": "cell-based", "settings": "10 μM, FIG. 16"}, "[6]": {"biological_target": "T2, ER-α46 (Homo sapiens, UniProt P03372)", "T2 sequence (P03372 1-422 isoform P03372-3)": "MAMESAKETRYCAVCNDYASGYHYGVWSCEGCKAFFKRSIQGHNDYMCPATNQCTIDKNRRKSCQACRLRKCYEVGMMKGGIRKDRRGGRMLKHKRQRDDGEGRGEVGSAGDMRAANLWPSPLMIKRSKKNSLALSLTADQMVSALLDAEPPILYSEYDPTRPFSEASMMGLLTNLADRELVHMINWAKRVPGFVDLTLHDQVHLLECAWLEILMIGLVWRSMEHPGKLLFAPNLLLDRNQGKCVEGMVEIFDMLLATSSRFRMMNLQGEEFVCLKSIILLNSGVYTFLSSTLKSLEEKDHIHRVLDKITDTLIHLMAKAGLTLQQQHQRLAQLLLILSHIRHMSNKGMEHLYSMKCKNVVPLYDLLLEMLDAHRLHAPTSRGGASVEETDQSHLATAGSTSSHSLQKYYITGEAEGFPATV", "assay": "Western blot of ER-α46 expression in MCF7 cells", "settings": "zero to 25 μM, 12 hours, FIG. 9"}, "[7]": {"biological_target": "T3, ER-α66 (Homo sapiens, UniProt P03372)", "T3 sequence (P03372 1-595)": "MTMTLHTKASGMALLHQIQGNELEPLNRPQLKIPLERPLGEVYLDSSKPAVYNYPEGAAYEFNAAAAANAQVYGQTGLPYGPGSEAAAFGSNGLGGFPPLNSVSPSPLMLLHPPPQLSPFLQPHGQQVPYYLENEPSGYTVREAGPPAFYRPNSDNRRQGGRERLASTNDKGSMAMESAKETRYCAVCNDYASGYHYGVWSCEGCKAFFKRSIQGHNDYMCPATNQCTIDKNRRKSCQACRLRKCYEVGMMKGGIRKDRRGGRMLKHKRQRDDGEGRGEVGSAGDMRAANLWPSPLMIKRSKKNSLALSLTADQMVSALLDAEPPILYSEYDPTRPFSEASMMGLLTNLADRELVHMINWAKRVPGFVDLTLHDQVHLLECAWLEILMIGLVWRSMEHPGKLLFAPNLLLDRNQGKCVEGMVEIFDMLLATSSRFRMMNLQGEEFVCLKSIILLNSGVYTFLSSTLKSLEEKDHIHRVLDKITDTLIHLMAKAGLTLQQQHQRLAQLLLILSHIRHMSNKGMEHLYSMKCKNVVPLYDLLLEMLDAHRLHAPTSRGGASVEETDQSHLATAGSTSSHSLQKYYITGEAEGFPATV", "assay": "Western blot of ER-α66 expression in MCF7 cells", "settings": "zero to 25 μM, 12 hours, FIG. 9"}, "[8]": {"system": "MCF7 cells", "assay": "MCF7 surviving cell count (hemocytometer)", "settings": "for numbers of surviving MCF7 cells: 5 μM and up, two weeks, FIG. 5b"}, "[9]": {"system": "MCF7 cells", "assay": "MCF7 colony formation", "format": "cell-based", "settings": "10 days, FIG. 5a"}, "[10]": {"system": "MDA-MB-231 cells", "assay": "MDA-MB-231 colony formation, crystal violet staining", "format": "cell-based", "settings": "10 days, FIG. 4"}, "[11]": {"system": "cell proliferation", "settings": "background, literature; cited from earlier work"}, "[12]": {"system": "human endometrial cancer Hec1A cells", "assay": "MTT assay of Hec1A cell growth", "format": "cell-based", "settings": "24 hours", "method": "Human endometrial cancer Hec1A cells (ATCC No.: HTB-112™) were subseeded in a 96-well culture plate at a concentration of 5×10^3 cells/well and were cultured in DMEM containing high glucose medium (HyClone, SH30022.01B). […] The cells then were incubated with 0.5 mg/ml 3-(4,5-dimethylthiazol-2-yl)-2,5-diphenyltetrazolium bromide (MTT) for 4 hours at 37° C. wherein the MTT was reduced to insoluble purple formazan by the active mitochondrial reductase enzymes in the living cells. Then the excessive liquid MTT was removed from the reaction mixture. 150 μl of DMSO was added to dissolve the purple formazan into a colored solution. The optical density of the colored solution was measured at 490 nm using a microplate reader."}, "[13]": {"system": "breast cancer cells", "settings": "background, literature (Liu 2005; Wang 2004; Ye 2005); cited from earlier work"}, "[14]": {"settings": "high dosage 4 mg/kg/day, 6th day"}, "[15]": {"settings": "low dosage 1 mg/kg/day, 6th day"}, "[16]": {"settings": "zero to 25 μM, as concentration rose"}}}
{"compound": "COc1ccc(-c2oc3c(CCC(C)(C)O)c(O)cc(O)c3c(=O)c2O)cc1", "note": "[IC 163, 3,5,7-trihydroxy-8-(3-hydroxy-3-methylbutyl)-2-(4-methoxyphenyl)-4H-chromen-4-one]", "values": [{"measurement": "numbers of cells", "setting": "[1]", "result": "reduced"}, {"measurement": "numbers of cells", "setting": "[2]", "result": "reduced"}, {"measurement": "latent period before asthma attack extended in comparison with the control group", "setting": "[3]; high dosage 4 mg/kg/day muscle injection, 4th day", "result": 72.9, "unit": "%"}, {"measurement": "latent period before asthma attack extended in comparison with the control group", "setting": "[3]; high dosage 4 mg/kg/day muscle injection, 6th day", "result": 63.5, "unit": "%"}, {"measurement": "blood concentration of histamine", "setting": "[3]; [14]", "result": "significantly reduce"}, {"measurement": "concentration of IgE in the blood", "setting": "[3]; [14]", "result": "significantly reduce"}, {"measurement": "percentage of oxyphil cells in the blood", "setting": "[3]; [14]", "result": "about 8.6%"}, {"measurement": "latent period before asthma attack extended in comparison with the control group", "setting": "[3]; low dosage 1 mg/kg/day muscle injection, 4th day", "result": 83.4, "unit": "%"}, {"measurement": "latent period before asthma attack extended in comparison with the control group", "setting": "[3]; low dosage 1 mg/kg/day muscle injection, 6th day", "result": 72.7, "unit": "%"}, {"measurement": "blood concentration of histamine", "setting": "[3]; [15]", "result": "significantly reduce"}, {"measurement": "concentration of IgE in the blood", "setting": "[3]; [15]", "result": "significantly reduce"}, {"measurement": "percentage of oxyphil cells in the blood", "setting": "[3]; [15]", "result": "about 7.8%"}, {"measurement": "ER-α36 expression", "setting": "[4]", "result": "greatly reduced"}, {"measurement": "numbers of cells", "setting": "[5]", "result": "reduced"}, {"measurement": "ER-α46 expression", "setting": "[6]", "result": "greatly reduced"}, {"measurement": "ER-α66 expression", "setting": "[7]", "result": "greatly reduced"}, {"measurement": "numbers of surviving MCF7 cells", "setting": "[8]", "result": "significantly reduced"}, {"measurement": "numbers of cells", "setting": "[8]; 10 μM, FIG. 16", "result": "reduced"}]}
{"compound": "C[C@]12CC[C@@H]3c4ccc(O)cc4C[C@@H](CCCCCCCCC[S+]([O-])CCCC(F)(F)C(F)(F)F)[C@H]3[C@@H]1CC[C@@H]2O", "note": "(some centres unmarked) [ICI 182,780]", "values": [{"measurement": "number of colonies of MCF7 cells", "setting": "[9]; 25 μM", "result": "only a limited decrease"}, {"measurement": "numbers of colonies of MDA-MB-231 cells", "setting": "[10]; 5 μM", "result": "decreased"}, {"measurement": "numbers of colonies of MDA-MB-231 cells", "setting": "[10]; 50 μM", "result": "remained at a high level"}]}
{"compound": "COc1ccc(-c2oc3c(CC=C(C)C)c(O[C@@H]4O[C@H](CO)[C@@H](O)[C@H](O)[C@H]4O)cc(O)c3c(=O)c2O[C@@H]2O[C@@H](C)[C@H](O)[C@@H](O)[C@H]2O)cc1", "note": "[Icariin]", "values": [{"measurement": "effect on cell proliferation in vitro", "setting": "[11]", "result": "no effect"}]}
{"compound": "O=c1cc(-c2ccc(O)c(O)c2)oc2cc(O)cc(O)c12", "note": "[Luteolin]", "values": [{"measurement": "number of colonies of MCF7 cells", "setting": "[9]; [16]", "result": "significantly reduced"}, {"measurement": "numbers of colonies of MDA-MB-231 cells", "setting": "[10]; 5 μM", "result": "decreased"}, {"measurement": "numbers of colonies of MDA-MB-231 cells", "setting": "[10]; 40 μM", "result": "dropped to near zero"}]}
{"compound": "CC/C(=C(\\c1ccccc1)c1ccc(OCCN(C)C)cc1)c1ccccc1", "note": "[Tamoxifen]", "values": [{"measurement": "number of colonies of MCF7 cells", "setting": "[9]; [16]", "result": "significantly reduced"}, {"measurement": "numbers of colonies of MDA-MB-231 cells", "setting": "[10]; 5 μM", "result": "decreased"}, {"measurement": "numbers of colonies of MDA-MB-231 cells", "setting": "[10]; 10 μM", "result": "reduced to near zero"}, {"measurement": "effect on the growth of Hec1A cells", "setting": "[12]; concentrations below 3 μM", "result": "stimulating the growth"}, {"measurement": "optical density at 490 nm (MTT)", "setting": "[12]; concentrations increased from 0.001 μM to 3 μM, FIG. 21", "result": "rose"}]}
{"compound": "CC1(C)CCc2c(cc(O)c3c(=O)c(O)c(-c4ccc(O)cc4)oc23)O1", "note": "[Y4, 3,5-dihydroxy-2-(4-hydroxyphenyl)-8,8-dimethyl-9,10-dihydro-4H,8H-pyrano[2,3-f]chromen-4-one]", "values": [{"measurement": "ER-α36 expression", "setting": "[4]", "result": "greatly reduced"}, {"measurement": "ER-α46 expression", "setting": "[6]", "result": "greatly reduced"}, {"measurement": "ER-α66 expression", "setting": "[7]", "result": "greatly reduced"}, {"measurement": "numbers of surviving MCF7 cells", "setting": "[8]", "result": "significantly reduced"}]}
{"compound": "CC(C)=CCc1c(O)cc(O)c2c(=O)c(O)c(-c3ccc(O)cc3)oc12", "note": "[desmethylicaritin, reference compound]", "values": [{"measurement": "proliferation of breast cancer cells", "setting": "[13]", "result": "significantly increase"}]}
